Legend:
[1] = system: Beet Armyworm (Spodoptera exigua, LAPHEG); test: Bioassay on Beet Armyworm (BAW), 128-well diet tray assay; format: in vivo; conditions: 168 h, 50 μg/cm^2 on artificial diet, second instar larvae, 25° C., five to seven days, average of eight wells, read-out: BAW % Control (or Mortality) rating
In short: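 Second-instar larvae, one to five per well, fed artificial diet surface-treated with 50 μg/cm^2 test molecule in 90:10 acetone-water, dried before infestation; eight wells per molecule. Held at 25 °C, 14:10 light-dark for five to seven days; percent mortality averaged over wells.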

[2] = system: Cabbage Looper (Trichoplusia ni, TRIPNI); test: Bioassay on Cabbage Looper (CL), 128-well diet tray assay; format: in vivo; conditions: 168 h, 50 μg/cm^2 on artificial diet, second instar larvae, 25° C., five to seven days, average of eight wells, read-out: CL % Control (or Mortality) rating
In short: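 Second-instar larvae (one to five per well) placed on artificial diet treated with 50 μg/cm^2 test molecule in 90:10 acetone-water, dried; eight wells per molecule. Held at 25° C., 14:10 light-dark, for five to seven days. Percent mortality scored per well and averaged over the eight wells.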

SMILES | mortality at 50 µg/cm2 [1] | mortality at 50 µg/cm2 [2]
Cc1ccc(C(C)C)c(N2C(=O)CS/C2=N\C(=O)Nc2ccc(/C=C/c3ncn(-c4ccc(OC(F)(F)F)cc4)n3)cn2)c1 [F70, 1-((Z)-3-(2-isopropyl-5-methylphenyl)-4-oxothiazolidin-2-ylidene)-3-(5-((E)-2-(1-(4-(trifluoromethoxy)phenyl)-1H-1,2,4-triazol-3-yl)vinyl)pyridin-2-yl)urea] | 50 to 100% | 50 to 100%
Cc1ccc(C(C)C)c(N2C(=O)CS/C2=N\C(=O)Nc2ccc(CCc3ncn(-c4ccc(OC(F)(F)F)cc4)n3)c(C)c2)c1 [F2, (Z)-1-(3-(2-Isopropyl-5-methylphenyl)-4-oxothiazolidin-2-ylidene)-3-(3-methyl-4-(2-(1-(4-(trifluoromethoxy)phenyl)-1H-1,2,4-triazol-3-yl)ethyl)phenyl)urea] | 50 to 100% | 50 to 100%
Cc1cc(N2C(=O)CS/C2=N\C(=O)Nc2ccc(CCc3ncn(-c4ccc(OC(F)(F)F)cc4)n3)cc2)c(C(C)C)cc1F [F9, (Z)-1-(3-(4-Fluoro-2-isopropyl-5-methylphenyl)-4-oxothiazolidin-2-ylidene)-3-(4-(2-(1-(4-(trifluoromethoxy)phenyl)-1H-1,2,4-triazol-3-yl)ethyl)phenyl)urea] | 50 to 100% | 50 to 100%
Cc1ccc(C(C)C)c(N2C(=O)CS/C2=N\C(=O)Nc2ccc(CCc3ncn(-c4ccc(OC(F)(F)F)cc4)n3)cn2)c1 [F32, (Z)-1-(3-(2-Isopropyl-5-methylphenyl)-4-oxothiazolidin-2-ylidene)-3-(5-(2-(1-(4-(trifluoromethoxy)phenyl)-1H-1,2,4-triazol-3-yl)ethyl)pyridin-2-yl)urea] | 50 to 100% | 50 to 100%
Cc1ccc(C(C)C)c(N2C(=O)CS/C2=N\C(=O)Nc2ccc(CCc3ncn(-c4ccc(OC(F)(F)F)cc4)n3)cc2C(F)(F)F)c1 [F25, (Z)-1-(3-(2-Isopropyl-5-methylphenyl)-4-oxothiazolidin-2-ylidene)-3-(4-(2-(1-(4-(trifluoromethoxy)phenyl)-1H-1,2,4-triazol-3-yl)ethyl)-2-(trifluoromethyl)phenyl)urea] | 50 to 100% | 50 to 100%
Cc1ccc(C(C)C)c(N2C(=O)CS/C2=N\C(=O)Nc2c(F)cc(CCc3ncn(-c4ccc(OC(F)(F)F)cc4)n3)cc2F)c1 [F19, (Z)-1-(2,6-Difluoro-4-(2-(1-(4-(trifluoromethoxy)phenyl)-1H-1,2,4-triazol-3-yl)ethyl)phenyl)-3-(3-(2-isopropyl-5-methylphenyl)-4-oxothiazolidin-2-ylidene)urea] | 50 to 100% | 50 to 100%
CCOc1ccc(C)cc1N1C(=O)CS/C1=N\C(=O)Nc1ccc(CCc2ncn(-c3ccc(OC(F)(F)F)cc3)n2)cc1 [F8, (Z)-1-(3-(2-Ethoxy-5-methylphenyl)-4-oxothiazolidin-2-ylidene)-3-(4-(2-(1-(4-(trifluoromethoxy)phenyl)-1H-1,2,4-triazol-3-yl)ethyl)phenyl)urea] | 50 to 100% | 50 to 100%
Cc1ccc(OCC(F)(F)F)c(N2C(=O)CS/C2=N\C(=O)Nc2ccc(/C=C/c3ncn(-c4ccc(OC(F)(F)F)cc4)n3)cc2)c1 [F51, 1-((Z)-3-(5-Methyl-2-(2,2,2-trifluoroethoxy)phenyl)-4-oxothiazolidin-2-ylidene)-3-(4-((E)-2-(1-(4-(trifluoromethoxy)phenyl)-1H-1,2,4-triazol-3-yl)vinyl)phenyl)urea] | 50 to 100% | 50 to 100%
Cc1ccc(C(C)C)c(N2C(=O)CS/C2=N\C(=O)Nc2ccc(CCc3ncn(-c4ncc(C(F)(F)F)cc4Cl)n3)cc2)c1 [F34, (Z)-1-(4-(2-(1-(3-Chloro-5-(trifluoromethyl)pyridin-2-yl)-1H-1,2,4-triazol-3-yl)ethyl)phenyl)-3-(3-(2-isopropyl-5-methylphenyl)-4-oxothiazolidin-2-ylidene)urea] | 0% | 50 to 100%
Cc1cc(N2C(=O)CS/C2=N\C(=O)Nc2ccc(/C=C/c3ncn(-c4ccc(OC(F)(F)F)cc4)n3)cc2)c(C(C)C)cc1F [F47, 1-((Z)-3-(4-Fluoro-2-isopropyl-5-methylphenyl)-4-oxothiazolidin-2-ylidene)-3-(4-((E)-2-(1-(4-(trifluoromethoxy)phenyl)-1H-1,2,4-triazol-3-yl)vinyl)phenyl)urea] | 50 to 100% | 50 to 100%
Cc1ccc(OC(C)C)c(N2C(=O)CS/C2=N\C(=O)Nc2ccc(/C=C/c3ncn(-c4ccc(OC(F)(F)F)cc4)n3)cc2)c1 [F49, 1-((Z)-3-(2-Isopropoxy-5-methylphenyl)-4-oxothiazolidin-2-ylidene)-3-(4-((E)-2-(1-(4-(trifluoromethoxy)phenyl)-1H-1,2,4-triazol-3-yl)vinyl)phenyl)urea] | 50 to 100% | 50 to 100%
Cc1ccc(OC(C)C)c(N2C(=O)CS/C2=N\C(=O)Nc2ccc(CCc3ncn(-c4ccc(OC(F)(F)F)cc4)n3)cc2)c1 [F11, (Z)-1-(3-(2-Isopropoxy-5-methylphenyl)-4-oxothiazolidin-2-ylidene)-3-(4-(2-(1-(4-(trifluoromethoxy)phenyl)-1H-1,2,4-triazol-3-yl)ethyl)phenyl)urea] | 50 to 100% | 50 to 100%
Cc1ccc(C(C)C)c(N2C(=O)CS/C2=N\C(=O)Nc2ccc(/C=C/c3ncn(-c4ccc(OC(F)(F)F)cc4)n3)cc2Cl)c1 [F56, 1-(2-chloro-4-((E)-2-(1-(4-(trifluoromethoxy)phenyl)-1H-1,2,4-triazol-3-yl)vinyl)phenyl)-3-((Z)-3-(2-isopropyl-5-methylphenyl)-4-oxothiazolidin-2-ylidene)urea] | 50 to 100% | 50 to 100%
CC(C)c1ccc(C(F)(F)F)cc1N1C(=O)CS/C1=N\C(=O)Nc1ccc(CCc2ncn(-c3ccc(OC(F)(F)F)cc3)n2)cc1 [F29, (Z)-1-(3-(2-Isopropyl-5-(trifluoromethyl)phenyl)-4-oxothiazolidin-2-ylidene)-3-(4-(2-(1-(4-(trifluoromethoxy)phenyl)-1H-1,2,4-triazol-3-yl)ethyl)phenyl)urea] | 50 to 100% | 50 to 100%
Cc1ccc(C(C)C)c(N2C(=O)CS/C2=N\C(=O)Nc2c(F)cc(/C=C/c3ncn(-c4ccc(OC(F)(F)F)cc4)n3)cc2F)c1 [F57, 1-(2,6-difluoro-4-((E)-2-(1-(4-(trifluoromethoxy)phenyl)-1H-1,2,4-triazol-3-yl)vinyl)phenyl)-3-((Z)-3-(2-isopropyl-5-methylphenyl)-4-oxothiazolidin-2-ylidene)urea] | 50 to 100% | 50 to 100%
Cc1ccc(OC(F)(F)F)c(N2C(=O)CS/C2=N\C(=O)Nc2ccc(CCc3ncn(-c4ccc(OC(F)(F)F)cc4)n3)cc2)c1 [F12, (Z)-1-(3-(5-Methyl-2-(trifluoromethoxy)phenyl)-4-oxothiazolidin-2-ylidene)-3-(4-(2-(1-(4-(trifluoromethoxy)phenyl)-1H-1,2,4-triazol-3-yl)ethyl)phenyl)urea] | 50 to 100% | 50 to 100%
Cc1ccc(F)c(N2C(=O)CS/C2=N\C(=O)Nc2ccc(CCc3ncn(-c4ccc(OC(F)(F)F)cc4)n3)cc2)c1 [F3, (Z)-1-(3-(2-Fluoro-5-methylphenyl)-4-oxothiazolidin-2-ylidene)-3-(4-(2-(1-(4-(trifluoromethoxy)phenyl)-1H-1,2,4-triazol-3-yl)ethyl)phenyl)urea] | 50 to 100% | 50 to 100%
